The source of these data is paper PMC7924852, “The Emericellipsins A–E from an Alkalophilic Fungus Emericellopsis alkalina Show Potent Activity against Multidrug-Resistant Pathogenic Fungi” (Journal of Fungi, 2021).

The MIC is the lowest concentration found to suppress growth. Low values mean greater potency, high ones weaker potency. In general, EC50 refers to the concentration needed to bring the measured effect to its halfway point. Usually IC50 stands for the concentration at which inhibition is half-maximal. A low value points to higher potency.

In test [1] the test system is Cryptococcus neoformans 297. Put plainly: Broth microdilution MIC and MFC (CLSI). Type of test: cell-based.
The subject of the next test is HepG2 cell line. To be noted: previous study; cited from earlier work. An excerpt: (§1) Accordingly, despite the high IC50 values for this molecule, fairly significant amounts of antibiotic are required to suppress the cell growth in vitro. The calculated therapeutic index value is sufficiently high due to a low cytotoxicity level for normal cells, which is an undeniable advantage over both pre-scorubicin and most other antitumor compou ...

The subject of the next test is Hela cell line. The conditions noted are these: previous study; cited from earlier work.
Description: as §1

In test [2] the test system is A. terreus 497. As to the kind of experiment: Disc-diffusion antifungal assay. The class given is cell-based. The conditions noted are these: 40 µg/disc; A. terreus 497, pathogenic clinical isolate.
The subject of a further test is C. tropicalis 156. As to the kind of experiment: Broth microdilution MIC and MFC (CLSI). Type of test: cell-based.
In test [3] the test system is A. niger 1133 m. As to the kind of experiment: Broth two-fold microdilution MIC (CLSI). The class given is cell-based, Aspergillus niger. The conditions noted are these: A. niger 1133 m clinical isolate; RPMI 1640 pH 7.0, 35 °C, 48 h. In general terms: Broth dilution looks for growth in wells or tubes with falling amounts of substance.
Test [4] has as its system A. terreus 3 K. As to the kind of experiment: Broth two-fold microdilution MIC (CLSI). The conditions noted are these: A. terreus 3 K; RPMI 1640 pH 7.0, 35 °C, 48 h. The class given is cell-based.
Test [5] has as its system A. terreus 3 K. As to the kind of experiment: Disc-diffusion antifungal assay. Type of test: cell-based. To be noted: 40 µg/disc. On the technique in general: A growth-free zone around the sample is the usual read-out of agar diffusion tests.
The test system of a further test is C. glabrata 1402. Put plainly: Broth microdilution MIC and MFC (CLSI). The class given is cell-based.
For test [6], the system named is isolates of Aspergillus spp. As to the kind of experiment: Broth microdilution MIC, ranges over mould isolates. Type of test: cell-based. The conditions noted are these: range over opportunistic and clinical isolates of Aspergillus spp. (Table 4).
In test [7] the test system is A. niger 1133 m. Put plainly: Disc-diffusion antifungal assay. To be noted: 40 µg/disc, pathogenic clinical isolate. Type of test: cell-based, Aspergillus niger.
The test system of test [8] is K-562 (leukemia cell line). As to the kind of experiment: MTT cytotoxicity assay. To be noted: 72 h, three experiments, each in triplicate. Type of test: cell-based. In general terms: Tetrazolium assays rely on reduction of a dye to a coloured formazan, in cell work by metabolically active cells.
Description: Experiments for determining the cytotoxic activity of the compound in MTT assays were performed as previously described [24]. The following tumor cell lines were used for this study: HCT-116 (colon cancer cell line), B16 (mouse melanoma cell line), K-562 (leukemia cell line), MDA-MB-231 (breast cancer line), and MCF-7 (breast cancer cell). […] The cell lines were cultured in Dulbecco modified Eagle’s medium supplemented with 5% fetal calf serum, 2 mM Lglutamine, 100 U/mL penicillin, and 100 mg/mL streptomycin at 37 °C, 5% CO2 in a humidified atmosphere. Experiments were carried out on cells in the logarithmic phase of growth. The peptide was dissolved in DMSO as a 10 mM stock solution, followed by serial dilutions in water immediately before the experiment. Briefly, cells (5 × 10^3 in 190 mL of culture medium) were plated in a 96-well plate and treated with 0.1% DMSO (blank control) or with 10 mM of the peptide (0.10‒50 μM; each concentration in duplicate) for 72 h. After incubation with peptide, 20 mL of aqueous MTT solution (3-(4,5-dimethylthiazol-2-yl)-2,5-diphenyltetrazolium bromide, 5 mg/mL) were added into each well for 2‒3 h. Formazan was dissolved in DMSO, and the absorbance at 570 nm was measured. […] All the experiments were repeated three times, each time in triplicate.
A further test concerns C. laurentii 325m. As to the kind of experiment: Broth microdilution MIC and MFC (CLSI). The class given is cell-based, Cr. laurentii.
Test [9] has as its system A. terreus 497. As to the kind of experiment: Broth two-fold microdilution MIC (CLSI). The class given is cell-based. To be noted: A. terreus 497 clinical isolate; RPMI 1640 pH 7.0, 35 °C, 48 h.
The next test relates to C. krusei 1447. Put plainly: Broth microdilution MIC and MFC (CLSI). The class given is cell-based.

With “Methyldecanoyl-MePro-AHMOD-Ala-Aib-Ile-Iva-βAla-Alaol-Glyol [EmiA, emericellipsin A, nonribosomal lipopeptaibol, major compound of E. alkalina VKPM F1428]”, the MFC came out at 0.5 mg/L in test [1] (Cryptococcus neoformans 297, lowest concentration causing 95% death); 2 mg/L in the test with C. tropicalis 156 (C. tropicalis 156, lowest concentration causing 95% death); 0.5 mg/L against C. glabrata 1402 (C. glabrata 1402, lowest concentration causing 95% death); 0.5 mg/L in the test with C. laurentii 325m (C. laurentii 325m, lowest concentration causing 95% death); 2 mg/L in the test with C. krusei 1447 (C. krusei 1447, lowest concentration causing 95% death). The MIC in test [1] (Cryptococcus neoformans 297 clinical isolate, RPMI 1640 pH 7.0, 35 °C, 24 h) worked out at 0.5 mg/L; against C. tropicalis 156 (C. tropicalis 156 clinical isolate, RPMI 1640 pH 7.0, 35 °C, 24 h), 1 mg/L; in the test on C. glabrata 1402 (C. glabrata 1402 clinical isolate, RPMI 1640 pH 7.0, 35 °C, 24 h), 0.25 mg/L; in the test with C. laurentii 325m (C. laurentii 325m clinical isolate, RPMI 1640 pH 7.0, 35 °C, 24 h), 0.5 mg/L; with C. krusei 1447 (C. krusei 1447 clinical isolate, RPMI 1640 pH 7.0, 35 °C, 24 h) it was 0.5 mg/L. Moreover, the values for the EC50 in the test on HepG2 cell line and in the test with Hela cell line were 2.8 µM and less than 0.5 µM, respectively. Further, the “Zone of Inhibition” value is on record as 14 ± 0.28 mm in the test on A. terreus 497 [2], 12 ± 0.25 mm in the test on A. terreus 3 K [5] and 18 ± 0.27 mm in the test with A. niger 1133 m [7]. Further, the “Minimal Inhibitory Concentration (MIC)” value with A. niger 1133 m [3] amounted to 4 mg/L; in the test on A. terreus 3 K [4] it was 0.5 mg/L; in the test on A. terreus 497 [9] it was 1 mg/L. The substance further displayed an MIC range in test [6] of 0.5 to 4 mg/L. In addition, the IC50 in [8] turned out to be 1 ± 0.14 µM.
